Results on three compounds are retold here after US4230846A, “1,5-Carbamates of fortimicin B and derivatives” (Abbott Laboratories, priority 1979, dated 1980).

The subject of assay [1] is Psuedo. aeruginosa KY 8516. Nature of the assay: In vitro antimicrobial activity, 2-fold agar dilution. Format: cell-based. As for the experimental part: (§1) 21, 1977. The in vitro activity of 2-deoxyfortimicin As set forth in Table I. The in vitro activity of 2-deoxyfortiicin A tetrahydrochloride, fortimicin A disulfate and fortimicin A tetrahydrochloride were determined using a 2-fold agar dilution method using 10 ml per petri plate of Mueller-Hinton agar. The agar was inoculated with one loopful (0.001 ml/loop) of a 1:10 dilution of a 24 hour broth culture of the indicated test organism and incubated at 37° C. for 24 hours.
In general terms: Agar dilution tests growth on a series of plates holding different concentrations.

A further assay deals with E coli 76-2. The assay is described as above. It counts as cell-based. The settings on record: Mueller-Hinton agar, 37° C., 24 hours. Here is the method: as §1

Counter-ions that a name gives are not always drawn. Like-named read-outs stand apart in the source and are kept apart here.

Consider `COC1CC(N)C(OC2OC(C(C)N)CCC2N)C(O)C1N(C)C(=O)CN` (centres unmarked) [2-deoxyfortimicin A tetrahydrochloride], for which the MIC in assay [1] (Psuedo. aeruginosa KY 8516, Mueller-Hinton agar, 37° C., 24 hours, read-out: Minimum inhibitory concentration) is 50 µg/mL; with E coli 76-2 (read-out: Minimum inhibitory concentration), 3.1 µg/mL.
Consider `COC1C(O)C(N)C(OC2OC(C(C)N)CCC2N)C(O)C1N(C)C(=O)CN` (centres unmarked) [Fortimicin A disulfate, fortimicin A disulfate], for which the MIC in assay [1] (24 h, read-out: Minimum inhibitory concentration, Psuedo. aeruginosa KY 8516, Mueller-Hinton agar, 37° C.) was found to be 50 µg/mL.
As for `COC1C(O)C(N)C(OC2OC(C(C)N)CCC2N)C(O)C1N(C)C(=O)CN` (centres unmarked) [Fortimicin A tetrahydrochloride, fortimicin A tetrahydrochloride], the Minimum inhibitory concentration in assay [1] (Psuedo. aeruginosa KY 8516, Mueller-Hinton agar, 37° C., 24 hours) came out at 100 µg/mL; in the assay on E coli 76-2, 3.1 µg/mL.
